Data published in patent US9789095B2, “Inhibitors of calcium-activated chloride channels” (The Regents of the University of California, priority 2007, dated 2017).

Tested on: calcium-activated chloride channel (CaCC)
Assay: YFP fluorescence plate reader iodide influx assay in HT-29 cells (ATP/carbachol)
Format: cell-based, human
Settings: class A aminothiophenes, semi-quantitative
Experimental: Screening was performed using a customized screening system (BECKMAN COULTER, Inc., Indianapolis, Ind.) consisting of the SAGIAN Core system integrated with SAMI software, and equipped with an ORCA arm for labware transport, a 96-channel head BIOMEK FX, CO2 incubator, plate washer, bar code reader, delidding station, and two FLUOstar OPTIMA fluorescence plate readers (BMG Labtechnologies, Durham, N.C.), each equipped with syringe pumps and custom excitation/emission filters (500/544 nm; CHROMA, Brattleboro, Vt.).
HT-29 cells expressing YFP-H148Q/I152L were plated in 96-well plates at 70% confluence. Plates were incubated overnight at 37° C., 5% CO2 and then the growth medium was replaced with fresh growth medium. […] YFP fluorescence was measured 1 s before and for 30 s after addition of a PBS-iodide solution (PBS that has 100 mM chloride replaced by iodide) containing carbachol and ATP (100 μM each). Each 96-well plate contained ‘positive’ controls (DMSO vehicle without agonists or test compounds) and ‘negative’ controls (DMSO vehicle with agonists but without test compounds). In some experiments solutions included (individually or in combination): carbachol, ATP, or histamine (at 50, 100, 150 or 200 μM), calcimycin (10 μM), thapsigargin (2 μM) and CFTRinh-172 (20 μM).
Iodide influx (d[I^−]/dt at t=0) was computed from fluorescence time course data by single exponential regression, as described (Ma et al., J. Clin. Invest. 110:1651-8 (2002)). Percentage inhibition was computed as: percentage inhibition=100×(Slopenegative control−Slopetest compound)/(Slopenegative control−Slopepositive control).

Row | SMILES | % inhibition at 25 μM [%]
1 | CC(C)(C)C1CCc2c(sc(NC(=O)c3ccccc3Cl)c2C(=O)O)C1 (stereo not shown) [CaCCinh-A05, 6-tert-butyl-2-(2-chlorobenzamido)-4,5,6,7-tetrahydrobenzo[b]thiophene-3-carboxylic acid] | 75
2 | COc1ccc(NC(=O)c2c(NC(=O)CCC(=O)O)sc3c2CCC(C(C)(C)C)C3)cc1 (stereo not shown) [CaCCinh-A18, 4-(6-tert-butyl-3-(4-methoxyphenylcarbamoyl)-4,5,6,7-tetrahydrobenzo[b]thiophen-2-ylamino)-4-oxobutanoic acid] | 35
3 | CCOC(=O)c1c(NC(=O)/C=C/C(=O)O)sc2c1CCC(C(C)(C)C)C2 (stereo not shown) [CaCCinh-A07, (E)-4-(6-tert-butyl-3-(ethoxycarbonyl)-4,5,6,7-tetrahydrobenzo[b]thiophen-2-ylamino)-4-oxobut-2-enoic acid] | 98
4 | CC(C)(C)C1CCc2c(sc(NC(=O)c3cccc(Cl)c3)c2C(=O)O)C1 (stereo not shown) [CaCCinh-A03, 6-tert-butyl-2-(3-chlorobenzamido)-4,5,6,7-tetrahydrobenzo[b]thiophene-3-carboxylic acid] | 50
5 | CCOC(=O)c1c(NC(=O)C2CCCCC2C(=O)O)sc2c1CCC(C(C)(C)CC)C2 (stereo not shown) [CaCCinh-A10, 2-(3-(ethoxycarbonyl)-6-tert-pentyl-4,5,6,7-tetrahydrobenzo[b]thiophen-2-ylcarbamoyl)cyclohexanecarboxylic acid] | 75
6 | COC(=O)c1c(NC(=O)CCC(=O)O)sc2c1CCC(C(C)(C)C)C2 (stereo not shown) [CaCCinh-A11, 4-(6-tert-butyl-3-(methoxycarbonyl)-4,5,6,7-tetrahydrobenzo[b]thiophen-2-ylamino)-4-oxobutanoic acid] | 81
7 | Cc1ccccc1C(=O)Nc1sc2c(c1C(=O)O)CCC(C(C)(C)C)C2 (stereo not shown) [CaCCinh-A02, 6-tert-butyl-2-(2-methylbenzamido)-4,5,6,7-tetrahydrobenzo[b]thiophene-3-carboxylic acid] | 95
8 | Cc1cccc(NC(=O)c2c(NC(=O)CCC(=O)O)sc3c2CCC(C(C)(C)C)C3)c1 (stereo not shown) [CaCCinh-A16, 4-(6-tert-butyl-3-(m-tolylcarbamoyl)-4,5,6,7-tetrahydrobenzo[b]thiophen-2-ylamino)-4-oxobutanoic acid] | 42
9 | CCOC(=O)c1c(NC(=O)CCC(=O)O)sc2c1CCC(C(C)(C)C)C2 (stereo not shown) [CaCCinh-A06, 4-(6-tert-butyl-3-(ethoxycarbonyl)-4,5,6,7-tetrahydrobenzo[b]thiophen-2-ylamino)-4-oxobutanoic acid] | 75
10 | Cc1cccc(C(=O)Nc2sc3c(c2C(=O)O)CCCC3)c1 [CaCCinh-A17, 2-(3-methylbenzamido)-4,5,6,7-tetrahydrobenzo[b]thiophene-3-carboxylic acid] | 07
11 | CC(C)(C)C1CCc2c(sc(NC(=O)c3ccccc3)c2C(=O)O)C1 (stereo not shown) [CaCCinh-A04, 2-benzamido-6-tert-butyl-4,5,6,7-tetrahydrobenzo[b]thiophene-3-carboxylic acid] | 85
12 | COc1cccc(C(=O)Nc2sc3c(c2C(=O)O)CCCCC3)c1 [CaCCinh-A15, 2-(3-methoxybenzamido)-5,6,7,8-tetrahydro-4H-cyclohepta[b]thiophene-3-carboxylic acid] | 20
13 | O=C(Nc1sc2c(c1C(=O)O)CCCCC2)c1ccccc1 [CaCCinh-A13, 2-benzamido-5,6,7,8-tetrahydro-4H-cyclohepta[b]thiophene-3-carboxylic acid] | 27
14 | Cc1ccc(C(=O)Nc2sc3c(c2C(=O)O)CCCCC3)cc1 [CaCCinh-A12, 2-(4-methylbenzamido)-5,6,7,8-tetrahydro-4H-cyclohepta[b]thiophene-3-carboxylic acid] | 15
15 | COC(=O)c1c(NC(=O)CCCC(=O)O)sc2c1CCC(C(C)(C)C)C2 (stereo not shown) [CaCCinh-A09, 5-(6-tert-butyl-3-(methoxycarbonyl)-4,5,6,7-tetrahydrobenzo[b]thiophen-2-ylamino)-5-oxopentanoic acid] | 45

Same assay, conditions: class B aminothiazoles, semi-quantitative

Row | SMILES | % inhibition at 25 μM [%]
16 | Cc1ccc(-c2nc(Nc3ccc(Cl)cc3Cl)sc2CC(=O)O)cc1 [CaCCinh-B04, 2-(2-(2,4-dichlorophenylamino)-4-p-tolylthiazol-5-yl)acetic acid] | 65
17 | COc1ccc(Nc2nc(-c3ccc(OC)cc3)c(CCC(=O)O)s2)cc1 [CaCCinh-B14, 3-(4-(4-methoxyphenyl)-2-(4-methoxyphenylamino)thiazol-5-yl)propanoic acid] | 18
18 | Cc1ccc(-c2nc(Nc3ccc(Br)cc3)sc2CC(=O)O)c(C)c1 [CaCCinh-B07, 2-(2-(4-bromophenylamino)-4-(2,4-dimethylphenyl)thiazol-5-yl)acetic acid] | 70
19 | Cc1ccc(-c2nc(Nc3cccc(C(F)(F)F)c3)sc2CC(=O)O)c(C)c1 [CaCCinh-B08, 2-(4-(2,4-dimethylphenyl)-2-(3-(trifluoromethyl)phenylamino)thiazol-5-yl)acetic acid] | 75
20 | CCNc1nc(-c2ccc(C)cc2)cs1 [CaCCinh-B13, N-ethyl-4-p-tolylthiazol-2-amine] | 20
21 | FC(F)(F)c1cccc(-c2csc(Nc3ccc(C4CCCCC4)cc3)n2)c1 [CaCCinh-B10, N-(4-cyclohexylphenyl)-4-(3-(trifluoromethyl)phenyl)thiazol-2-amine] | 55
22 | Cc1ccc(-c2nc(Nc3cccc(C(F)(F)F)c3)sc2CC(=O)O)cc1 [CaCCinh-B05, 2-(4-p-tolyl-2-(3-(trifluoromethyl)phenylamino)thiazol-5-yl)acetic acid] | 60
23 | Cc1ccc(-c2nc(Nc3ccc(C)c(Cl)c3)sc2CC(=O)O)cc1 [CaCCinh-B02, 2-(2-(3-chloro-4-methylphenylamino)-4-p-tolylthiazol-5-yl)acetic acid] | 40
24 | Cc1ccc(-c2nc(NC(=O)c3cccc(C)c3)sc2-c2ccccc2)cc1 [CaCCinh-B12, 3-methyl-N-(5-phenyl-4-p-tolylthiazol-2-yl)benzamide] | 03
25 | Cc1ccc(-c2nc(Nc3cccc(Br)c3)sc2CC(=O)O)cc1 [CaCCinh-B03, 2-(2-(3-bromophenylamino)-4-p-tolylthiazol-5-yl)acetic acid] | 60
26 | CCCc1sc(Nc2ccc(C(=O)O)cc2)nc1-c1ccc(C)cc1C [CaCCinh-B06, 4-(4-(2,4-dimethylphenyl)-5-propylthiazol-2-ylamino)benzoic acid] | 100
27 | CCOc1ccc(Nc2nc(-c3ccc(C)cc3)c(CC(=O)O)s2)cc1 [CaCCinh-B11, 2-(2-(4-ethoxyphenylamino)-4-p-tolylthiazol-5-yl)acetic acid] | 65
28 | CC(C)Cc1ccc(Nc2nc(-c3ccc(Oc4ccccc4)cc3)cs2)cc1 [CaCCinh-B09, N-(4-isobutylphenyl)-4-(4-phenoxyphenyl)thiazol-2-amine] | 65
